Like-named read-outs stand apart in the source and are kept apart here.
What was measured:
[1] = Plasma protein binding (PPB), rat; assay type: in vitro ADME; conditions: 5 h dialysis, read-out: Plasma protein binding rate (%) Rat (converted)
Method: (§1) Sample preparation: The compound was dissolved in DMSO to a stock solution of 10 mM, then the compound was diluted with PBS to a secondary stock solution of 0.02 mM, and then the above 0.02 mM was diluted to 1 μM using blank plasma, which was the sample to be incubated.
(§2) Dialysis set-up preparation: 400 μL of blank PBS was first added to the white wells of the equilibrated dialysis plate and 200 μL of the configured plasma sample was added to the red wells, and the dialysis plate was sealed with a sealing film.
(§3) Recovery plate preparation: Two 96-well deep-well plates, labelled T0 and T5, were prepared and all plasma samples were added at n=2. 300 μL of acetonitrile (Verapamil-HCl, 4 ng/mL) was added directly to the TO plate, followed by 50 μL of blank PBS mix well for 5 min and left to stand in a 4° C. refrigerator until the end of the incubation.
(§4) Experimental Operation: The dialysis device and the T5 plate were incubated together for 5 h in a microplate thermostatic shaker (37° C., using 300 rpm or minimum speed). At the end of the incubation, 300 μL of acetonitrile (Verapamil-HCl, 4 ng/mL) was added and 50 μL of PBS solution was added. At the end of the dialysis incubation, a new 96-well deep well plate was taken. Add 50 μL of plasma well sample to the corresponding position of the 96-well plate, 300 μL of acetonitrile and 50 μL of blank PBS; take 50 μL of buffer well sample to the corresponding position of the 96-well plate, then add 300 μL of acetonitrile and 50 μL of blank plasma. Add 300 μL of acetonitrile (Verapamil-HCl, 4 ng/mL) to the plasma-containing wells of the T5 plate, and then 50 μL of PBS solution was added. Shake for 5 min to fully precipitate the proteins and centrifuge at 20,000 g for 10 min at 4° C. Add 200 μL of supernatant to 200 μL of pure water, mix well and perform LC-MS/MS analysis.
(§5) 2. Data Processing and Parameter Calculation Plasma protein binding rate=[(Rpe−Rb)/Rpe]×100% Recovery=[(Rpe+Rb)/R5h]×100% Stability=(R5/R0)×100% where • Rpe=ratio of plasma-side testing sample peak area to internal standard • Rb=ratio of buffer side testing sample peak area to internal standard • R5=ratio of incubator stability sample peak area to internal standard • R0=ratio of refrigerator stability sample peak area to internal standard 3.

[2] = system: MIA Paca-2 cells; experiment: Anti-proliferative effect by Cell Titer-Glo, MIA Paca-2; assay type: cell-based; conditions: Homo sapiens, read-out: IC50 measured value MIA Paca-2
Method: Compound solutions of different concentration gradients were prepared. DMSO was dissolved to a concentration of 10 mM test compound and 10 mM reference compound AZD1775, and the compounds were serially diluted in culture medium for a total of 9 dose points, with 2 parallel replicates set at each concentration. The cell growth group without compound was used as a positive control (maximum signal control) and the medium was used as a negative control (minimum signal control), while ensuring that the final level of DMSO in each reaction well was 0.2%. After removing the medium from the 384-well plate, 25 ul of the configured compound at different concentrations was transferred into the well plate and the compound and cells were incubated in the cell incubator at 37° C. with 5% CO2 for 3 days.
The 384-well plates were removed from the cell incubator and allowed to equilibrate for 1 h to room temperature. 25 ul of Cell Titer-Glo assay was added to each well, lysed on a shaker for 2 min and then read out (Luminescence) using a BMG PHERAStar after 10 min incubation. Calculate the inhibition rate from the luminescence signal: first calculate the average of the positive control (maximum signal control) and the negative control (minimum signal control).
[formula] to calculate the rate of inhibition of the cells by different concentrations of the compounds. The IC50 of the compound on cell activity inhibition was calculated by fitting a log(inhibitor) vs. response-Variable slope model to GraphPad Prism 6. The fitted equation was: Y=Bottom+(Top−Bottom)/(1+10^((Log IC50−X)*HillSlope)), where Y represents the rate of inhibition and X represents the concentration of the known compound after Log.

[3] = Plasma protein binding (PPB), mouse; assay type: in vitro ADME; conditions: 5 h dialysis, read-out: Plasma protein binding rate (%) Mouse (converted)
Method: as §1, §2, §3, §4, §5

[4] = Membrane permeability study (Caco-2); assay type: in vitro ADME; conditions: human; for Papp A→B at 90 min, 10 µM / Papp B→A at 90 min, 10 µM: pH 7.4, Caco-2, 10 μM; for Papp A→B at 90 min, 10 µM: A to B; for Papp B→A at 90 min, 10 µM: B to A; for efflux ratio at 90 min, 10 µM: Caco-2, pH 7.4, read-out: Efflux Ration
Method: Caco-2 cells were purchased from the […] (Rockville, MD). The cell culture medium was modified Eagle's medium (MEM) containing 10% inactivated fetal bovine serum and 1% non-essential amino acids. Cells were inoculated on polycarbonate filter membranes (Cat no. 3396) and incubated at 37° C. in a 5% CO2 incubator.
The cells were incubated for 21-28 days after inoculation for transport experiments and the apparent permeability (Papp) of Lucifer Yellow was used to characterize and verify the compactness of the cell monolayer. A stock solution of 10 mM was prepared by dissolving the compound in DMSO and diluted using Hanks Balanced Salt Solution (HBSS, Invitrogen, Cat #14025-092) containing 25 mM HEPES (pH 7.4) to obtain the working solution. A 10 μM working solution of the compound to be tested was added to the apical side and basolateral side of Caco-2 and incubated at 37° C. for 90 min. After the incubation, dilute the samples on the apical side and basolateral side, and the concentrations of compounds on the apical and basolateral sides were detected by LC-MS/MS, and the concentrations of the compounds were quantified by standard curve.

[5] = target: CYP2C19 (Homo sapiens, UniProt P33261); experiment: Inhibition of cytochrome P450, CYP2C19; assay type: in vitro ADME; conditions: CYP2C19 enzyme, pH 7.4, probe EOMCC, read-out: CYP inhibition/% 2C19; for inhibition at 30 min, 1 µM: compound concentration 1 μM; for inhibition at 30 min, 10 µM: compound concentration 10 μM
Chain of CYP2C19 (P33261 whole entry, canonical isoform): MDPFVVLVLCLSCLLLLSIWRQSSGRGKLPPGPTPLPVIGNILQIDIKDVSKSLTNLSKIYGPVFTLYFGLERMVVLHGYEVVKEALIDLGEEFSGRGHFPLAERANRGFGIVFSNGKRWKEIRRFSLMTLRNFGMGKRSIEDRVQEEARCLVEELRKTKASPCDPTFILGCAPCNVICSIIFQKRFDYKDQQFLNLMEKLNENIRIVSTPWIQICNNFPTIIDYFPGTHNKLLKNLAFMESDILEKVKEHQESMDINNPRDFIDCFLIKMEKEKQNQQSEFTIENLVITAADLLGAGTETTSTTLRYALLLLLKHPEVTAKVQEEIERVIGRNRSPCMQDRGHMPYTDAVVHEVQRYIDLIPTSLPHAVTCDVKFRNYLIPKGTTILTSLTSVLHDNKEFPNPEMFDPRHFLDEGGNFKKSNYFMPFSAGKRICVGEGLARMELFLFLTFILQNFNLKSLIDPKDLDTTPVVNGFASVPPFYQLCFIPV
Method: (§6) Enzymatic experiments were performed to quantify the inhibition of CYP450 enzyme activity of each isoform of CYP450 by small molecule inhibitors through fluorescence generated by the oxidation of the substrate by cytochrome P450. […] The Solution B composition used for the experiment was: 40 U/mL G6PDH (Sigma-aldrich, Cat #G6378). The substrate mix was 0.05× Solution A, 0.01× Solution B, 50 mM Potassium Phosphate, 0.01 mM BOMCC/0.01 mM EOMCC/0.001 mM DBOMF. […] The data were analyzed and processed using GraphPad Prism 6 software to obtain IC50 values.

[6] = target: CYP2C9 (Homo sapiens, UniProt P11712); experiment: Inhibition of cytochrome P450, CYP2C9; assay type: in vitro ADME; conditions: CYP2C9 enzyme, pH 7.4, probe BOMCC, read-out: CYP inhibition/% 2C9; for inhibition at 30 min, 1 µM: compound concentration 1 μM; for inhibition at 30 min, 10 µM: compound concentration 10 μM
Chain of CYP2C9 (P11712 whole entry): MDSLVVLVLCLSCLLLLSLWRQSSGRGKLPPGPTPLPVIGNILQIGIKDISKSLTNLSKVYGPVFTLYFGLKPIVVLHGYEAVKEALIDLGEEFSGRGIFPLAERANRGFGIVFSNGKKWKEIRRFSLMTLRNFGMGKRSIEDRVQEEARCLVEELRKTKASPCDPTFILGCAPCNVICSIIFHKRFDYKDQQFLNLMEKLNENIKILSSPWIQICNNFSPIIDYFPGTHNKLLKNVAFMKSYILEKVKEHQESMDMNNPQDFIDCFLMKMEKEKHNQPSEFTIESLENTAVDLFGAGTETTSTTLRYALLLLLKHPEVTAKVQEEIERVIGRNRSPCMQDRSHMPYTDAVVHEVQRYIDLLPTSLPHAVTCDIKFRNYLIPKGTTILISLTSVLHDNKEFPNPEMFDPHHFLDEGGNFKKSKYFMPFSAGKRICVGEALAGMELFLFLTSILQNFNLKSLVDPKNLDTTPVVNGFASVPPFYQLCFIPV
Method: as §6

[7] = target: CYP2D6 (Homo sapiens, UniProt P10635); experiment: Inhibition of cytochrome P450, CYP2D6; assay type: in vitro ADME; conditions: CYP2D6 enzyme, pH 7.4, probe EOMCC, read-out: CYP inhibition/% 2D6; for inhibition at 30 min, 1 µM: compound concentration 1 μM; for inhibition at 30 min, 10 µM: compound concentration 10 μM
Chain of CYP2D6 (P10635 whole entry): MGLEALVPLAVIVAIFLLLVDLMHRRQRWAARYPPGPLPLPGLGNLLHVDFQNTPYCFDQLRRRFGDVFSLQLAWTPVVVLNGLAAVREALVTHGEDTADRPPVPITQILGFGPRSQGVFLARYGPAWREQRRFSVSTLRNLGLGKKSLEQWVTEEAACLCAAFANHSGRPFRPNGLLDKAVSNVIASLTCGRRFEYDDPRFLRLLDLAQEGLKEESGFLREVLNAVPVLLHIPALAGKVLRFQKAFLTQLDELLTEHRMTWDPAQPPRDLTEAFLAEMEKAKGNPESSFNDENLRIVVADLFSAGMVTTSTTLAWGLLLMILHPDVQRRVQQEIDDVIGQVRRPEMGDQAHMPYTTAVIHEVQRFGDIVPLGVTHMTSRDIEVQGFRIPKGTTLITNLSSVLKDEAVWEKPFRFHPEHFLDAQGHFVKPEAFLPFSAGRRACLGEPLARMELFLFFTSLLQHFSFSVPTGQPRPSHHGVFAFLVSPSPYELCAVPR
Method: as §6

[8] = 72 h, MIA Paca-2 cells, 3 days, Cell Titer-Glo

Structure (SMILES) | fraction unbound at 5 h, 1 µM [1] | IC50 [2, 8] [µM] | fraction unbound at 5 h, 1 µM [3] | Papp A→B at 90 min, 10 µM [4] [×10⁻⁶ cm/s] | Papp B→A at 90 min, 10 µM [4] [×10⁻⁶ cm/s] | inhibition at 30 min, 1 µM [5] [%] | inhibition at 30 min, 10 µM [5] [%] | inhibition at 30 min, 1 µM [6] [%] | inhibition at 30 min, 10 µM [6] [%] | inhibition at 30 min, 1 µM [7] [%] | inhibition at 30 min, 10 µM [7] [%] | IC50 ([2]; MIA PaCa-2, 72 h) [µM] | efflux ratio at 90 min, 10 µM [4]
C=CCn1c(=O)c2cnc(Nc3ccc(N4CCN(C)CC4)cc3)nc2n1-c1cccc(C(C)(C)O)n1 [AZD-1775, reference compound] | 0.374 | 0.1 to 1 | 0.087 | 14.5 | 35.3 | – | – | – | – | – | – | – | –
CN1CCN(c2ccc(Nc3ncc4cnn(-c5cccc(N=S(C)(C)=O)n5)c4n3)cc2)CC1 [Compound 1] | 0.404 | – | 0.226 | 8.93 | 41.7 | 3.3 | 10.7 | 7.5 | 18.6 | 2.8 | 2 | 0.1 to 1 | 4.67
CN1CCN(c2ccc(Nc3ncc4cnn(-c5cccc(C(C)(C)O)n5)c4n3)cc2)CC1 [Compound 2] | – | – | – | – | – | 3.8 | 9.8 | -10.6 | -16 | 0.3 | 3.1 | – | –
CS(C)(=O)=Nc1cccc(-n2ncc3cnc(Nc4ccc(N5CCOCC5)cc4)nc32)n1 [Compound 6] | – | – | – | – | – | -16.5 | -8.3 | 15.3 | 13.1 | -7.6 | -19.4 | – | –
Cc1cc(Nc2ncc3cnn(-c4cccc(N=S(C)(C)=O)n4)c3n2)ccc1N1CCC(N(C)C)CC1 [Compound 14] | 0.246 | < 0.1 | 0.138 | 5.86 | 20.8 | – | – | – | – | – | – | – | 3.54
Cc1cc(Nc2ncc3cnn(-c4cccc(N=S(C)(C)=O)n4)c3n2)ccc1N1CCN(C)CC1 [Compound 16] | 0.179 | 0.1 to 1 | 0.092 | 8.07 | 20.3 | – | – | – | – | – | – | – | 2.51
